Laboratory results reported in paper PMC11271341 (Clinical Pharmacokinetics, 2024).
Where two headings read alike, the source gives them in different places. Each block holds one compound with its values, some of them ahead of it.

Legend:
OCT2/MATE1 = settings: in vitro; pazopanib as OCT1/MATE1 inhibitor (so in the source); cited from earlier work
[1] = Metformin trough plasma concentration; type: in vivo, human; settings: n = 18
[2] = test system: multidrug and toxin extrusion protein 1 (MATE1); settings: in vitro studies; cited from earlier work
[3] = test system: organic cation transporter 2 (OCT2); settings: in vitro studies; cited from earlier work
[4] = exceeds the glomerular filtration rate; cited from earlier work
[5] = cited from earlier work
[6] = Trifluridine plasma pharmacokinetics, three-phase crossover study in patients; type: in vivo; settings: human, oral, median Tmax, range over the three phases, phases A, B and C

SMILES: N.N.[Cl][Pt][Cl] [cisplatin]
change in cisplatin exposure when combined with pazopanib (OCT2/MATE1): significant in vitro increase

geometric mean Ctrough ([1]; metformin 500 mg b.i.d. in combination with trifluridine/tipiracil): 240 ng/mL
geometric mean Ctrough ([1]; metformin monotherapy (day 14)): 150 ng/mL
SMILES: CN(C)C(=N)N=C(N)N [metformin]

SMILES: N=C1CCCN1Cc1nc(O)nc(O)c1Cl [tipiracil]
interaction with MATE1 [2]: substrate and inhibitor
interaction with OCT2 [3]: substrate and inhibitor
renal clearance [4]: ~ 300 mL/min

Tmax [6]: 46.8 to 60 min
SMILES: O=c1[nH]c(=O)n([C@H]2C[C@H](O)[C@@H](CO)O2)cc1C(F)(F)F [trifluridine]
increase of area under the curve vs normal renal function (≥ 90 mL/min) ([5]; mild renal impairment (creatinine clearance between 60 and 89 mL/min)): 31%
increase of area under the curve vs normal renal function (≥ 90 mL/min) ([5]; moderate renal impairment (between 30 and 59 mL/min)): 43%
